Results on four compounds are retold here after patent publication US20180296453A1, “Oral Care Product and Methods of Use and Manufacture Thereof” (Colgate-Palmolive Company, priority 2008, published 2018).

One data set concerns S. sanguis. Nature of the data set: Ammonia production by S. sanguis at pH 4.0. It is filed as cell-based. The conditions noted are these: 5 millimolar, pH 4.0, 0.1% sucrose, 37° C., 30 minutes. The procedure:
An overnight culture of S. sanguis was grown at 37° C. in trypticase soy broth (Becton Dickinson, Sparks, Md.). The culture was centrifuged at 5,000 rpm for 5 minutes at 1 milliliter at a time into preweighed tubes in order to accumulate approximately 5 milligrams of wet pellet weight. The pellet was then resuspended into 20 millimolar potassium phosphate buffer (JT Baker, Phillipsburg, N.J.), pH 4.0, to simulate a stressed environment for the bacterial cell where ammonia would be produced for survival. The final concentration was 5 milligram per milliliter. To this final concentration, a 5 millimolar final concentration of L-arginine, L-citrulline, or L-ornithine was added along with a 0.1% final concentration of sucrose (VWR, West Chester, Pa.). This mixture was then incubated at 37° C. in a shaking water bath for 30 minutes before ammonia production was determined.
In order to analyze for ammonia, an Ammonia Assay kit was used from Diagnostic Chemicals Limited (Oxford, Conn.). The intended use of this specific kit is for the in vitro quantification of ammonia in plasma, but the procedure was modified in order to determine and quantify the ammonia production in plaque and/or bacteria.

The conditions of data set [1]: cited from earlier work.

Molecules are shown by their SMILES.

As for `NCCC[C@H](N)C(=O)O` [L-Ornithine, L-ornithine], the Ammonia in the data set on S. sanguis (Mean of 6 trials) is reported as 0.134 ppm; in the data set on S. sanguis (Trial 1) it was 0.185 ppm; in the data set on S. sanguis (Trial 2), 0.260 ppm; in the data set on S. sanguis (Trial 3), 0.047 ppm; in the data set with S. sanguis (Trial 4), 0.0 ppm; in the data set on S. sanguis (Trial 5) it was 0.181 ppm. For the same compound, in the data set with S. sanguis (Trial 6), the Ammonia was 0.135 ppm.
Consider `NC(=O)NCCC[C@H](N)C(=O)O` [L-Citrulline, L-citrulline], for which the Ammonia came out at 0.951 ppm with S. sanguis (Mean of 6 trials); 0.185 ppm in the data set on S. sanguis (Trial 1); 0.346 ppm in the data set with S. sanguis (Trial 2); 0.332 ppm in the data set with S. sanguis (Trial 3); 0.194 ppm in the data set with S. sanguis (Trial 4); 0.226 ppm with S. sanguis (Trial 5). In addition, the Ammonia with S. sanguis (Trial 6) is on record as 0.951 ppm.
With `N=C(N)NCCC[C@H](N)C(=O)O` [L-Arginine, L-arginine], the Ammonia with S. sanguis (Mean of 6 trials) is reported as 1.06 ppm; in the data set on S. sanguis (Trial 1), 0.509 ppm; in the data set with S. sanguis (Trial 2), 0.866 ppm; with S. sanguis (Trial 3) it was 2.20 ppm; in the data set on S. sanguis (Trial 4), 1.62 ppm; with S. sanguis (Trial 5) it was 0.5 ppm. In the data set on S. sanguis (Trial 6), this compound showed an Ammonia of 0.679 ppm.
In the case of `Oc1cc(Cl)ccc1Oc1ccc(Cl)cc1Cl` [triclosan, 5-chloro-2-(2,4-dichlorophenoxy)phenol], the “solubility in water (in words)” value in data set [1] is on record as “only slightly soluble in water”.
